From patent US20260008760A1, “DIPEPTIDYL PEPTIDASE 1 INHIBITORS AND USES THEREOF” (Insmed Incorporated, priority 2024, published 2026)
Where “and” joins values, the source holds several entries; their conditions need not be identical. Identical values can stand only once. Like-named read-outs stand apart in the source and are kept apart here.

How the values were obtained:
human DPP1 enzyme = human DPP1 enzyme (Homo sapiens, UniProt P53634); assay: Human DPP1 Enzyme IC50 Assay; type: biochemical; set-up: was first proteolytically processed into its mature form using recombinant human cathepsin L; purchased R&D Systems
human DPP1 enzyme, sequence (P53634 25-134 limits assumed): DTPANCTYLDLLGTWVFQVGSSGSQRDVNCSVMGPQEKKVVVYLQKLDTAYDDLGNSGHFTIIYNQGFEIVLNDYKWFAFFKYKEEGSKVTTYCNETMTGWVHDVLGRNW
human DPP1 enzyme, sequence (P53634 231-394 limits assumed): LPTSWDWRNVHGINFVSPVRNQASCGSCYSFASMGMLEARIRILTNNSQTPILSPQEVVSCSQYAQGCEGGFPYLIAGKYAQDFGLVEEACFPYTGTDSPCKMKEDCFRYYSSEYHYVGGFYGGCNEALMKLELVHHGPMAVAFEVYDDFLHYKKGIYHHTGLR
human DPP1 enzyme, sequence (P53634 395-463 limits assumed): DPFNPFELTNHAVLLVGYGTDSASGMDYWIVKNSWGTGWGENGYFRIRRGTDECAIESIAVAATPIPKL
Summary of the method: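 IC50 came from a four-parameter fit of activity relative to no-compound control, with fluorescence (Ex 350/Em 450 nm) read every 5 min for 90 min at 37 °C using 400 μM final H-Gly-Arg-AMC. Cathepsin L-matured human recombinant DPP1 was preincubated 10 min with compound at pH 6.0 (MES, DTT, 1% DMSO).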

DPP1 in HL-60 cells = DPP1 in HL-60 cells (Homo sapiens, UniProt P53634); assay: DPP1 Cell IC50 assay; type: cell-based; set-up: host or cells: HL-60 cells; conditions: 60 min pre-incubation, H-Gly-Phe-AFC substrate, average of n runs
DPP1 in HL-60 cells, sequence (P53634 25-463): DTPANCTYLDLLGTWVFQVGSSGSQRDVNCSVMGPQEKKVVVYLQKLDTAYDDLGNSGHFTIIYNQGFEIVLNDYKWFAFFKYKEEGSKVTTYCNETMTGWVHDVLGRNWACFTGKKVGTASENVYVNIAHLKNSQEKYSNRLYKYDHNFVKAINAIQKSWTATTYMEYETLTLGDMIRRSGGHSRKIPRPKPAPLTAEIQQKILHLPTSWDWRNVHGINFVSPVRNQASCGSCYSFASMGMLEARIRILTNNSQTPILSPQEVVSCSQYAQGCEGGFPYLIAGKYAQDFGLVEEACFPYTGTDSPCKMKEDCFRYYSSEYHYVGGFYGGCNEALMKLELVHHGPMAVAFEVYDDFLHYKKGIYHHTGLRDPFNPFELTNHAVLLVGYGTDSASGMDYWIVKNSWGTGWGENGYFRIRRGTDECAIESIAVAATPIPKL
Summary of the method: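 Intracellular DPP1 activity read as AFC fluorescence (Ex/Em 400/505 nm) after 30 min with H-Gly-Phe-AFC (500 μM stock), following 60 min compound pre-incubation at 37° C with HL-60 cells at 5×10^5 live cells per mL in PBS. IC50 by 4-parameter fit against DMSO-only controls.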

active mouse DPP1 enzyme = biological target: T1, active mouse DPP1 enzyme (Mus musculus, UniProt P97821); assay: Mouse DPP1 Enzyme IC50 Assay; type: biochemical
T1 construct: Each subunit is composed of an N-terminal fragment, a heavy chain and a light chain; purchased R&D Systems
T1 sequence (P97821 25-134 limits assumed): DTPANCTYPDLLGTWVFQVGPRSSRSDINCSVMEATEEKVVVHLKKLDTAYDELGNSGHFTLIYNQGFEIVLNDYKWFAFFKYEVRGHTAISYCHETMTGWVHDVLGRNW
T1 sequence (P97821 231-393 limits assumed): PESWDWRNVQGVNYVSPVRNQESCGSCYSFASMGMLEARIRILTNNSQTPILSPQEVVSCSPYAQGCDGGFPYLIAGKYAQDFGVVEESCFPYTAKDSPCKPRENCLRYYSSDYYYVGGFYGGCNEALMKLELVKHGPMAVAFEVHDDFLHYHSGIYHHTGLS
T1 sequence (P97821 394-462 limits assumed): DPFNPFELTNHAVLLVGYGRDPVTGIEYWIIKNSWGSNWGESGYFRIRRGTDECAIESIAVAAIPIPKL
Method: Example 96: Mouse DPP1 Enzyme IC50 Assay
Test articles were applied to active mouse DPP1 enzyme (R&D Systems; Minneapolis, MN) in Assay Buffer (50 mM MES pH 5.5, 50 mM NaCl, 5 mM DTT) in a total reaction volume of 125 μL. 25 μL of compound in Assay Buffer plus […] was first added to 50 μL of active mouse DPP1 enzyme at a concentration of 62.5 pg/μL and allowed to pre-incubate for 10 minutes at 37° C. after which 50 μL of […] H-Gly-Arg-AMC substrate (Bachem; St. Torrance, CA) was added, giving final substrate concentration of 400 µM and a final DMSO concentration of […]. Substrate cleavage was measured for 90 minutes at 37° C., with fluorescence at Excitation/Emission 350/450 nm measured every 5 minutes. DPP1 concentration was interpolated based on its activity relative to a standard curve of recombinant active mouse DPP enzyme. IC50 values for each compound were calculated via the XLFit (IDBS Version 5.3.1.3) Add-On to Microsoft Excel using the four parameter fit equation y=(A+((B−A)/(1+((C/x)^D)))), which appears as equation number 205 (4 Parameter Logistic Model or Sigmoidal Dose-Response Model) in XLFit. Default constraints were used for each Parameter. IC50 was defined as the compound concentration at which 50% of enzyme activity was inhibited when compared to the no-compound control.
In Table 2, *** represent average IC50≤5 nM, ** represents average IC50 in the range of 5-20 nM, and * represents average IC50 in the range of ≥20 nM, where the designations were made solely based on the average value without taking into account of the standard deviations.

[1] = activated recombinant human DPP1, 400 μM H-Gly-Arg-AMC, 10 minutes pre-incubation at 37° C., pH 6.0, average of n runs, read-out: Avg. IC50 (Human DPP1 enzyme IC50 value ranges)
[2] = read-out: Avg. IC50 (DPP1 Cell IC50 value ranges)
[3] = active mouse DPP1 enzyme, H-Gly-Arg-AMC substrate, 10 minutes pre-incubation at 37° C., pH 5.5, average of n runs, read-out: Avg. IC50 (Mouse DPP1 enzyme IC50 value ranges)

| SMILES | IC50 (human DPP1 enzyme; [1]) | IC50 (DPP1 in HL-60 cells; [2]) [nM] | IC50 (active mouse DPP1 enzyme; [3]) [nM] | IC50 (human DPP1 enzyme) [nM] | IC50 (DPP1 in HL-60 cells; Avg. IC50 (DPP1 Cell IC50 value ranges)) [nM] | IC50 (active mouse DPP1 enzyme) [nM] |
| --- | --- | --- | --- | --- | --- | --- |
| CN1CCN(S(=O)(=O)c2ccc(-c3ccc(C[C@@H](C#N)NC(=O)[C@@H]4CNCCCO4)cc3)cc2)CC1 [Compound 20, (2S)—N-[(1S)-1-cyano-2-[4′-(4-methylpiperazin-1-ylsulfonyl)-[1,1′-biphenyl]-4-yl]ethyl]-1,4-oxazepane-2-carboxamide] | > 15 nM | > 2.5 | > 20 | – | – | – |
| N#Cc1ccc2c(c1)COc1cc(CC(C#N)NC(=O)[C@@H]3CNCCCCO3)c(F)cc1-2 (single isomer, unassigned) [Compound B9] | 5 to 15 nM and > 15 nM | 1 to 2.5 | 5 to 20 | – | – | – |
| CN1CCC2(CCc3cc(-c4ccc(C[C@@H](C#N)NC(=O)[C@@H]5CNCCCO5)cc4)ccc32)CC1 [Compound 26, (2S)—N-[(1S)-1-cyano-2-(4-{1′-methyl-2,3-dihydrospiro[indene-1,4′-piperidin]-5-yl}phenyl)ethyl]-1,4-oxazepane-2-carboxamide] | > 15 nM | > 2.5 | > 20 | – | – | – |
| N#Cc1ccc(-c2ccc(C[C@@H](C#N)NC(=O)[C@@H]3CNCCCO3)cc2)cc1C1CC1 [Compound 8, (2S)—N-[(1S)-1-cyano-2-{4′-cyano-3′-cyclopropyl-[1,1′-biphenyl]-4-yl}ethyl]-1,4-oxazepane-2-carboxamide] | > 15 nM | > 2.5 | > 20 | – | – | – |
| N#C[C@H](Cc1ccc(-c2ccc(C(F)(F)F)cc2)cc1)NC(=O)[C@@H]1CNCCCO1 [Compound 12, (2S)—N-[(1S)-1-cyano-2-[4′-(trifluoromethyl)-[1,1′-biphenyl]-4-yl]ethyl]-1,4-oxazepane-2-carboxamide] | > 15 nM | > 2.5 | > 20 | – | – | – |
| CCN1C(=O)Cc2ccc(-c3ccc(C[C@@H](C#N)NC(=O)[C@@H]4CNCCCO4)cc3)cc21 [Compound 32, (2S)—N-[(1S)-1-cyano-2-[4-(1-ethyl-2-oxo-3H-indol-6-yl)phenyl]ethyl]-1,4-oxazepane-2-carboxamide] | – | – | > 20 | – | – | – |
| N#C[C@H](Cc1ccc(-c2ccc3c(c2)CCCS3)cc1)NC(=O)[C@@H]1CNCCCO1 [Compound A5, (2S)—N-[(1S)-1-cyano-2-[4-(3,4-dihydro-2H-1-benzothiopyran-6-yl)phenyl]ethyl]-1,4-oxazepane-2-carboxamide] | > 15 nM | > 2.5 | > 20 | – | – | – |
| CO[C@@H]1CCNC[C@@H](C(=O)N[C@H](C#N)Cc2ccc(-c3cc4c(C)nc(C)cn4c3)cc2F)OC1 [Compound A47, (2S,7R)—N-[(1S)-1-cyano-2-(4-{1,3-dimethylpyrrolo[1,2-a]pyrazin-7-yl}-2-fluorophenyl)ethyl]-7-methoxy-1,4-oxazocane-2-carboxamide] | < 5 nM | 1 to 2.5 | < 5 | – | – | – |
| N#Cc1ccc2c(c1)COc1cc(CC(C#N)NC(=O)[C@@H]3CNCCCCO3)c(F)cc1-2 (stereo partly drawn) [Compound B7, (2S)—N-(1-cyano-2-(8-cyano-2-fluoro-6H-benzo[c]chromen-3-yl)ethyl)-1,4-oxazocane-2-carboxamide] | > 15 nM | > 2.5 | > 20 | – | – | – |
| Cc1csc(-c2ccc(C[C@@H](C#N)NC(=O)[C@@H]3CNCCCO3)cc2)n1 [Compound 11, (2S)—N-[(1S)-1-cyano-2-[4-(4-methyl-1,3-thiazol-2-yl)phenyl]ethyl]-1,4-oxazepane-2-carboxamide] | > 15 nM | > 2.5 | > 20 | – | – | – |
| N#C[C@H](Cc1cc2c(cc1F)-c1cc(C3COC3)c(F)cc1CO2)NC(=O)[C@@H]1CNCCCO1 [Compound B2, (2S)—N-{1-cyano-2-[2,8-difluoro-9-(oxetan-3-yl)-6H-benzo[c]chromen-3-yl]ethyl}-1,4-oxazepane-2-carboxamide] | – | – | – | 5 to 15 | 1 to 2.5 | 5 to 20 |
| N#CC(Cc1cc2c(cc1F)-c1ccc(F)cc1CO2)NC(=O)[C@@H]1CNCCCCO1 (mixture of isomers) [Compound B16, (2S)—N-(1-cyano-2-{2,8-difluoro-6H-benzo[c]chromen-3-yl}ethyl)-1,4-oxazocane-2-carboxamide] | > 15 nM | > 2.5 | > 20 | – | – | – |
| N#C[C@H](Cc1ccc(-c2ccc3c(c2)CCNC3=O)cc1)NC(=O)[C@@H]1CNCCCO1 [Compound A2, (2S)—N-[(1S)-1-cyano-2-[4-(1-oxo-3,4-dihydro-2H-isoquinolin-6-yl)phenyl]ethyl]-1,4-oxazepane-2-carboxamide] | > 15 nM | > 2.5 | > 20 | – | – | – |
| Cn1nc(F)c2ccc(-c3ccc(C[C@@H](C#N)NC(=O)[C@@H]4CNCCCO4)cc3)cc21 [Compound A1, (S)—N—((S)-1-cyano-2-(4-(3-fluoro-1-methyl-1H-indazol-6-yl)phenyl)ethyl)-1,4-oxazepane-2-carboxamide] | > 15 nM | > 2.5 | > 20 | – | – | – |
| CN1C(=O)CCc2cc(-c3ccc(C[C@@H](C#N)NC(=O)[C@@H]4CNCCCO4)cc3)ccc21 [Compound A21, (2S)—N-[(1S)-1-cyano-2-[4-(1-methyl-2-oxo-3,4-dihydroquinolin-6-yl)phenyl]ethyl]-1,4-oxazepane-2-carboxamide] | > 15 nM | > 2.5 | > 20 | – | – | – |
| N#Cc1ccc(-c2ccc(C[C@@H](C#N)NC(=O)[C@@H]3CNCCCO3)cc2)cc1C(F)(F)F [Compound 7, (2S)—N-[(1S)-1-cyano-2-[4′-cyano-3′-(trifluoromethyl)-[1,1′-biphenyl]-4-yl]ethyl]-1,4-oxazepane-2-carboxamide] | > 15 nM | > 2.5 | > 20 | – | – | – |
| Cc1cn2cc(-c3ccc(C[C@@H](C#N)NC(=O)[C@@H]4CNCCCO4)cc3)cc2c(C)n1 [Compound A8, (2S)—N-[(1S)-1-cyano-2-(4-{1,3-dimethylpyrrolo[1,2-a]pyrazin-7-yl}phenyl)ethyl]-1,4-oxazepane-2-carboxamide] | > 15 nM | > 2.5 | > 20 | – | – | – |
| CN1CCN(S(=O)(=O)c2ccc(-c3ccc(C[C@@H](C#N)NC(=O)[C@@H]4CNCCCO4)c(F)c3)cc2)CC1 [Compound 21, (2S)—N-[(1S)-1-cyano-2-[3-fluoro-4′-(4-methylpiperazin-1-ylsulfonyl)-[1,1′-biphenyl]-4-yl]ethyl]-1,4-oxazepane-2-carboxamide] | > 15 nM | > 2.5 | > 20 | – | – | – |
| Cc1cn2cc(-c3ccc(C[C@@H](C#N)NC(=O)[C@@H]4CNCCCCO4)c(F)c3)cc2c(C)n1 [Compound A28, (2S)—N-[(1S)-1-cyano-2-(4-{1,3-dimethylpyrrolo[1,2-a]pyrazin-7-yl}-2-fluorophenyl)ethyl]-1,4-oxazocane-2-carboxamide] | > 15 nM | 1 to 2.5 | > 20 | – | – | – |
| CN1CCC2(CC1)OC(=O)c1ccc(-c3ccc(C[C@@H](C#N)NC(=O)[C@@H]4CNCCCO4)cc3)cc12 [Compound 14, (2S)—N-[(1S)-1-cyano-2-(4-{1′-methyl-3-oxospiro[2-benzofuran-1,4′-piperidin]-6-yl}phenyl)ethyl]-1,4-oxazepane-2-carboxamide] | 5 to 15 nM | > 2.5 | 5 to 20 | – | – | – |
| N#C[C@H](Cc1ccc(-c2ccc3c(n2)CCCN3)cc1)NC(=O)[C@@H]1CNCCCO1 [Compound A10, (2S)—N-[(1S)-1-cyano-2-[4-(5,6,7,8-tetrahydro-1,5-naphthyridin-2-yl)phenyl]ethyl]-1,4-oxazepane-2-carboxamide] | > 15 nM | > 2.5 | > 20 | – | – | – |
